Assay results taken from ChEMBL document CHEMBL3046640, “Synthesis and antimicrobial activity of bischalcone derivatives” (2013).
≈ marks a conversion by molar mass, not a printed value. Calls of active or inactive are those of the source. The rule behind the calls is not given here.

Experiments:
Assay type in all cases: functional
Candida albicans [1] = test: Antifungal activity against Candida albicans ATCC 10231 assessed as growth inhibition at 100 ug/mL after 3 to 4 days by agar diffusion method; conditions: read-out: DIZ
Aspergillus niger [2] = test: Antifungal activity against Aspergillus niger ATCC 16404 assessed as growth inhibition after 48 hr by broth dilution method
Pseudomonas aeruginosa [3] = test: Antibacterial activity against Pseudomonas aeruginosa ATCC 27853 assessed as growth inhibition at 100 ug/mL after 24 hr by cup-plate method; conditions: ATCC 27853, 24 h, read-out: DIZ
Escherichia coli [4] = test: Antibacterial activity against Escherichia coli ATCC 25922 assessed as growth inhibition after 24 hr by broth dilution method
Aspergillus niger [5] = test: Antifungal activity against Aspergillus niger ATCC 16404 assessed as growth inhibition at 100 ug/mL after 3 to 4 days by agar diffusion method; conditions: read-out: DIZ
Staphylococcus aureus [6] = test: Antibacterial activity against Staphylococcus aureus ATCC 25923 assessed as growth inhibition at 100 ug/mL after 24 hr by cup-plate method; conditions: ATCC 25923, 24 h, read-out: DIZ
Candida albicans [7] = test: Antifungal activity against Candida albicans ATCC 10231 assessed as growth inhibition after 48 hr by broth dilution method
Rhizopus arrhizus [8] = test: Antifungal activity against Rhizopus oryzae MTCC 262 assessed as growth inhibition at 100 ug/mL after 3 to 4 days by agar diffusion method; conditions: read-out: DIZ
Staphylococcus aureus [9] = test: Antibacterial activity against Staphylococcus aureus ATCC 25923 assessed as growth inhibition after 24 hr by broth dilution method
Escherichia coli [10] = test: Antibacterial activity against Escherichia coli ATCC 25922 assessed as growth inhibition at 100 ug/mL after 24 hr by cup-plate method; conditions: ATCC 25922, 24 h, read-out: DIZ
Pseudomonas aeruginosa [11] = test: Antibacterial activity against Pseudomonas aeruginosa ATCC 27853 assessed as growth inhibition after 24 hr by broth dilution method
Rhizopus arrhizus [12] = test: Antifungal activity against Rhizopus oryzae MTCC 262 assessed as growth inhibition after 48 hr by broth dilution method

Row | MIC (Aspergillus niger [2]; ATCC 16404, 48 h) [µg/mL] | MIC (Escherichia coli [4]; ATCC 25922, 24 h) [µg/mL] | MIC (Candida albicans [7]; ATCC 10231, 48 h) [µg/mL] | MIC (Staphylococcus aureus [9]; ATCC 25923, 24 h) [µg/mL] | MIC (Pseudomonas aeruginosa [11]; ATCC 27853, 24 h) [µg/mL] | MIC (Rhizopus arrhizus [12]; MTCC 262, 48 h) [µg/mL] | MIC (Aspergillus niger [2]) | MIC (Escherichia coli [4]) | MIC (Candida albicans [7]) | MIC (Staphylococcus aureus [9]) | MIC (Pseudomonas aeruginosa [11]) | MIC (Rhizopus arrhizus [12]) | SMILES | zone of inhibition at 100 µg/mL (Candida albicans [1]) [mm] | zone of inhibition at 100 µg/mL (Pseudomonas aeruginosa [3]) [mm] | zone of inhibition at 100 µg/mL (Aspergillus niger [5]) [mm] | zone of inhibition at 100 µg/mL (Staphylococcus aureus [6]) [mm] | zone of inhibition at 100 µg/mL (Rhizopus arrhizus [8]) [mm] | zone of inhibition at 100 µg/mL (Escherichia coli [10]) [mm]
1 | 50 (≈ 116 µM) | 50 (≈ 116 µM) | 25 (≈ 58.1 µM) | 50 (≈ 116 µM) | 50 (≈ 116 µM) | 25 (≈ 58.1 µM) |  |  |  |  |  |  | COc1cccc(/C=C/C(=O)c2cc(C(=O)/C=C/c3cccc(OC)c3)c(O)cc2O)c1 | 15 | 10 | 10 | 10 | 15 | 10
2 |  |  |  |  |  |  | inactive | inactive | inactive | inactive | inactive | inactive | CC(=O)c1cc(C(C)=O)c(OC(=O)c2ccccc2C)cc1OC(=O)c1ccccc1C | < 5 | < 5 | < 5 | < 5 | < 5 | < 5
3 |  | > 100 | > 100 |  |  |  | inactive |  |  | inactive | inactive | inactive | COc1cccc(/C=C/C(=O)c2cc(C(=O)/C=C/c3cccc(OC)c3)c(OC)cc2OC)c1 | 5 | < 5 | < 5 | < 5 | < 5 | 5
4 |  | > 100 |  | 50 (≈ 102 µM) |  |  | inactive |  | inactive |  | inactive | inactive | CC(=O)c1cc(C(C)=O)c(OC(=O)c2ccccc2[N+](=O)[O-])cc1OC(=O)c1ccccc1[N+](=O)[O-] | < 5 | < 5 | < 5 | 10 | < 5 | 5
5 |  |  | > 100 | > 100 | > 100 |  | inactive | inactive |  |  |  | inactive | Cc1ccccc1/C=C/C(=O)c1cc(C(=O)/C=C/c2ccccc2C)c(O)cc1O | 5 | 5 | < 5 | 5 | < 5 | < 5
6 | 50 (≈ 90.8 µM) | 50 (≈ 90.8 µM) | 25 (≈ 45.4 µM) | 50 (≈ 90.8 µM) | > 100 | 50 (≈ 90.8 µM) |  |  |  |  |  |  | COc1cc(/C=C/C(=O)c2cc(C(=O)/C=C/c3cc(OC)c(OC)c(OC)c3)c(O)cc2O)cc(OC)c1OC | 15 | 5 | 10 | 10 | 10 | 10
7 | > 100 | 25 (≈ 54.8 µM) | 50 (≈ 110 µM) | 50 (≈ 110 µM) | 50 (≈ 110 µM) | 50 (≈ 110 µM) |  |  |  |  |  |  | CN(C)c1ccc(/C=C/C(=O)c2cc(C(=O)/C=C/c3ccc(N(C)C)cc3)c(O)cc2O)cc1 | 10 | 10 | 5 | 10 | 10 | 15
8 | > 100 |  |  |  | > 100 |  |  | inactive | inactive | inactive |  | inactive | COc1ccccc1C(=O)Oc1cc(OC(=O)c2ccccc2OC)c(C(C)=O)cc1C(C)=O | < 5 | 5 | 5 | < 5 | < 5 | < 5
9 |  |  |  | > 100 |  |  | inactive | inactive | inactive |  | inactive | inactive | CC(=O)c1cc(C(C)=O)c(OC(=O)c2cccc(Cl)c2)cc1OC(=O)c1cccc(Cl)c1 | < 5 | < 5 | < 5 | 5 | < 5 | < 5
10 | 50 (≈ 115 µM) | 25 (≈ 57.4 µM) | 12.5 (≈ 28.7 µM) | 12.5 (≈ 28.7 µM) | 25 (≈ 57.4 µM) | 25 (≈ 57.4 µM) |  |  |  |  |  |  | O=c1cc(-c2ccc(Cl)cc2)oc2cc3oc(-c4ccc(Cl)cc4)cc(=O)c3cc12 | 15 | 15 | 10 | 15 | 15 | 15
11 | > 100 | 50 (≈ 96.4 µM) | > 100 | > 100 |  |  |  |  |  |  | inactive | inactive | COc1ccc(/C=C/C(=O)c2cc(C(=O)/C=C/c3ccc(OC)c(OC)c3)c(OC)cc2OC)cc1OC | 5 | < 5 | 5 | 5 | < 5 | 10
